What was measured:
Format in all cases: functional
Cavia porcellus [1] = assay: Platelet-activating factor-antagonist activity was assessed in guinea pig bronchoconstriction assay through peroral administration at a dose of 50 mg/kg at 6 hr; settings: Lung, route oral
Cavia porcellus [2] = assay: Platelet-activating factor-antagonist activity was assessed in guinea pig bronchoconstriction assay through peroral administration at a dose of 50 mg/kg at 2 hr; settings: Lung, route oral
Cavia porcellus [3] = assay: 50% inhibitory dose in a guinea pig bronchoconstriction assay of intravenous administration; settings: Lung, read-out: ID50 (the source's name)
Cavia porcellus [4] = assay: 50% inhibitory dose in a guinea pig bronchoconstriction assay through peroral administration; settings: Lung, po, read-out: ID50 (the source's name)
Cavia porcellus [5] = assay: 50% inhibitory dose in a guinea pig bronchoconstriction assay upon intravenous administration; settings: Lung, read-out: ID50 (the source's name)
Cavia porcellus [6] = assay: 50%inhibitory dose in a guinea pig bronchoconstriction assay through peroral administration; settings: Lung, po, read-out: ID50 (the source's name)

Compound	inhibition in vivo at 50 mg/kg (Cavia porcellus [1]) [%]	inhibition in vivo at 50 mg/kg (Cavia porcellus [2]) [%]	ED50 (Cavia porcellus [3]) [mg/kg]	ED50 (Cavia porcellus [4]) [mg/kg]	ED50 (Cavia porcellus [5]) [mg/kg]	ED50 (Cavia porcellus [6]) [mg/kg]
COc1ccc(-c2ccc(C(=O)N[C@H](C)CCCc3cccnc3)cc2[N+](=O)[O-])cc1OC	36	89	0.19	22		
COc1cccc(-c2ccc(C(=O)NCCCCc3cccnc3)cc2)c1		55			0.51	50
CCCCc1cc(C(=O)N[C@H](C)CCCc2cccnc2)ccc1-c1ccc(OC)c(OC)c1	55	91	0.8	25		
COc1cccc(-c2ccc(C(=O)N[C@H](C)CCCc3cccnc3)cc2)c1		44	0.45			
COc1ccc(-c2ccc(C(=O)N[C@H](C)CCCc3cccnc3)cc2)cc1OC	29	88	0.62	30		
C=CCc1cc(C(=O)N[C@H](C)CCCc2cccnc2)ccc1-c1ccc(OC)c(OC)c1	26	93	0.33	24		
CCc1cc(C(=O)N[C@H](C)CCCc2cccnc2)ccc1-c1ccc(OC)c(OC)c1	23	89	0.34	24		
COc1ccc(-c2ccc(C(=O)NCCCCc3cccnc3)cc2[N+](=O)[O-])cc1OC	4	62	0.76	39		
COc1ccc(-c2ccc(C(=O)NCCCCc3cccnc3)cc2OC)cc1OC	13	64	0.52			
COc1ccc(-c2ccc(C(=O)N[C@H](C)CCCc3cccnc3)cc2Br)cc1OC	59	97	0.4	14		
COc1ccc(-c2ccc(C(=O)NCCCCc3cccnc3)cc2Br)cc1OC	1	74	0.4	19		
O=C(NCCCCc1cccnc1)c1ccc(-c2ccccc2)c(-c2ccccc2)c1		33	3.2			
COc1ccc(-c2ccc(C(S)=N[C@H](C)CCCc3cccnc3)cc2)cc1OC		37	0.31			

Reference: ChEMBL document CHEMBL1124556, “Biphenylcarboxamide derivatives as antagonists of platelet-activating factor” (J Med Chem, 1989)
